Test results as given in PubChem BioAssay (NCI).
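In this assay, cells in 96-well plates receive the compound at five concentrations for 48 hours. Endpoints are linearly interpolated between the surrounding concentrations. At the GI50, growth is halved. TGI: total growth inhibition.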

Tests used:
Assay in all cases: growth of human tumour cells (NCI), 48 h
[1] = system: UO-31 renal
[2] = system: HOP-62 NSCLC
[3] = system: NCI-H522 lung
[4] = system: HL-60(TB) leukemia
[5] = system: BT-549 breast
[6] = system: SF-268 CNS
[7] = system: SK-MEL-5 melanoma
[8] = system: DMS 114 small cell lung
[9] = system: DMS 273 small cell lung
[10] = system: XF 498 CNS
[11] = system: DLD-1 colon
[12] = system: SNB-78 CNS
[13] = system: KM20L2 colon

| Structure (SMILES) | TGI [1] [µM] | TGI [2] [µM] | TGI [3] [µM] | TGI [4] [µM] | TGI [5] [µM] | TGI [6] [µM] | TGI [7] [µM] | GI50 [1] [µM] | GI50 [2] [µM] | GI50 [3] [µM] | GI50 [4] [µM] | GI50 [5] [µM] | GI50 [6] [µM] | GI50 [7] [µM] | TGI [8] [µM] | TGI [9] [µM] | TGI [10] [µM] | TGI [11] [µM] | TGI [12] [µM] | TGI [13] [µM] |
| --- | --- | --- | --- | --- | --- | --- | --- | --- | --- | --- | --- | --- | --- | --- | --- | --- | --- | --- | --- | --- |
| O=C(O)CC(CC(=O)O)C(=O)O | > 100 | > 100 | > 100 | > 100 | > 100 | > 100 | > 100 | – | – | – | – | – | – | – | – | – | – | – | – | – |
| O=C(O)CC1NC(/C(=C/c2ccccc2)NC(=O)c2ccccc2)OC1=O (centres undefined) | 59 | 37.2 | 33.5 | 38 | 44.2 | > 100 | 32.3 | – | – | – | – | – | – | – | – | – | – | – | – | – |
| C/C(=N\NC(=S)N1CCCCC1)c1nc2ncccc2[nH]1 | > 100 | > 100 | 30.7 | 19.1 | 28.3 | > 100 | 12.3 | – | – | – | – | – | – | – | – | – | – | – | – | – |
| COc1ccc(N2C(=O)CC(C3CC(C(C)(C)C)CCC3=O)C2=O)cc1 (centres undefined) | > 100 | > 100 | 32.9 | > 100 | > 100 | > 100 | > 100 | – | – | – | – | – | – | – | – | – | – | – | – | – |
| Cc1cc(C)n(C(=C(C(Cl)=C(Cl)Cl)[N+](=O)[O-])n2nc(C)cc2C)n1 | 11.3 | 19.5 | 6.74 | 3.92 | 16.3 | 16.7 | 3.88 | – | – | – | – | – | – | – | – | – | – | – | – | – |
| O=C(C=P(c1ccccc1)(c1ccccc1)c1ccccc1)c1ccc(-c2cccc([N+](=O)[O-])c2)s1 | > 100 | > 100 | > 100 | 59.6 | > 100 | > 100 | 74.2 | – | – | – | – | – | – | – | – | – | – | – | – | – |
| CN(C)CCCNC(=O)c1cc2[nH]c3c(cnc4ccc([N+](=O)[O-])cc43)c(=O)c2n1C | 32.1 | 30.9 | 32.1 | 34.4 | 43.2 | 29.4 | 31.1 | 17 | 17.2 | 17.4 | 12.2 | 20.2 | 15.9 | 17.1 | – | – | – | – | – | – |
| CCOC(=O)C1=C(C)N(Cc2ccc(Cl)cc2Cl)C2(O)C=CC(=O)C3C(=O)N(c4ccccc4)C(=O)C132 (centres undefined) | 5 | 29.5 | 3.64 | 6.67 | 3.27 | 11.3 | 8.57 | – | – | – | – | – | – | – | – | – | – | – | – | – |
| COc1cc(C(=O)n2c3ccc(Br)cc3c3nc4ccccc4nc32)cc(OC)c1OC | > 100 | > 100 | > 100 | > 100 | > 100 | > 100 | > 100 | – | – | – | – | – | – | – | – | – | – | – | – | – |
| COC(=O)CC(C#N)(OP1(=O)OC(c2ccccc2)C(C)N1C)c1ccccc1 (centres undefined) | 27.2 | > 100 | > 100 | 58 | > 100 | > 100 | > 100 | – | – | – | – | – | – | – | – | – | – | – | – | – |
| COc1ccc(C2COc3cc(OC(C)=O)c(OC(C)=O)cc3C2)cc1 (centres undefined) | 40.6 | 67.4 | 6.3 | 7.32 | – | 37 | 48.2 | – | – | – | – | – | – | – | 20.6 | 52.7 | 23.9 | 54.8 | 81.4 | 65.8 |
| OC1(C(F)(F)F)OCCN=C1C(F)(F)F (centres undefined) | > 100 | > 100 | > 100 | > 100 | > 100 | > 100 | > 100 | – | – | – | – | – | – | – | – | – | – | – | – | – |
| CCCn1c2ccccc2c2ccc3c(c21)C(=O)C=CC3=O | > 10 | > 10 | 3.54 | > 2.27 | 4.9 | > 10 | > 10 | – | – | – | – | – | – | – | – | – | – | – | – | – |
| CCOC(=O)C1(C#N)C(c2ccccc2)CC(O)(c2ccc(OC)cc2)C(C(=O)c2ccc(OC)cc2)C1c1ccccc1 (centres undefined) | > 100 | > 100 | > 100 | > 100 | – | > 100 | > 100 | – | – | – | – | – | – | – | > 100 | > 100 | – | > 100 | > 100 | > 100 |
| N=C1/C(=C/c2ccc(F)cc2)C(=O)N=C2SC=NN12 | > 100 | > 100 | > 100 | > 100 | > 100 | > 100 | > 100 | – | – | – | – | – | – | – | – | – | – | – | – | – |
| O=c1cnn(C/C=C/CBr)c(=O)[nH]1 | 28.8 | 33.2 | 22.9 | 26.5 | 19.4 | 39.3 | 26.6 | – | – | – | – | – | – | – | – | – | – | – | – | – |
| Nc1ccc(Oc2ccc(C34CC5CC6C3CC3CC4C(C5)C6(c4ccc(Oc5ccc(N)cc5)cc4)C3)cc2)cc1 | > 100 | 53.6 | 47.7 | 22 | > 82.8 | > 72 | 5.27 | – | – | – | – | – | – | – | – | – | – | – | – | – |
| C=C(CCC/C(C)=C/C=C/[C@]1(C)CCCc2ccoc21)CC(=O)O | > 100 | > 100 | > 100 | > 100 | > 100 | > 100 | > 100 | – | – | – | – | – | – | – | – | – | – | – | – | – |
| c1nc(OCC2CCCCC2)c2[nH]cnc2n1 | > 100 | > 100 | > 100 | > 100 | > 100 | > 100 | > 100 | – | – | – | – | – | – | – | – | – | – | – | – | – |
